These results are taken from patent US11827543B2, “Method for continuous supply of superoxide-containing peracetate oxidant solution” (Clean Chemistry, Inc., priority 2014, dated 2023).

The subject of one data set is bacteria. In words: ATP concentration (LuminUltra metabolic ATP measurement) in oxidant-treated water. The class given is cell-based. The conditions noted are these: produced water, Example 18, 0.30 mmol/L oxidant.
Data set [1] is described as follows: Chlorine dioxide stock solution concentration over time (HACH DPD method). The conditions noted are these: 2800 mg/L stock solution, room temperature, 7 days. In kind it is physicochemical. On the procedure: Chlorine dioxide stock solution preparation: One AQUA-Tab 20 G chlorine dioxide tablet (Beckart Environmental, Inc.) was dissolved in 32 oz (946 mL) of distilled water in a closed polyethylene container according to the product instructions. The yellow solution was allowed to sit for at least 1 hour before use. The chlorine dioxide concentration was measured before use using the HACH DPD method no. 10126 after diluting 0.330 mL of the prepared chlorine dioxide stock solution with distilled water to 200 mL in a volumetric flask. The initial chlorine dioxide concentration of the stock solution was measured to be 2800 mg/L. The concentration decreased slowly over time at room temperature, e.g., 6.4% decrease in 7 days.

The nature of data set [2]: ORP (oxidative-reductive potential) measurement of solutions and treated water. The class given is physicochemical. The conditions noted are these: for ORP (mV vs SHE): early flowback water, Example 19, 1.7 mmol/L oxidant; for ORP: 29 mM, pH 7. On the procedure: Example 9: Hydrogen Peroxide Residual Concentration and interference. A sodium peracetate oxidant solution was produced according to the procedure in Example 4 and diluted to 2800 mg/L (28.5 mmol/L) with either distilled water, for clean water conditions, or tap water containing about 0.18 mg/L copper, which served as an activation catalyst. Some samples were spiked with 30 or 60 mg/L (0.88 or 1.76 mmol/L, respectively) hydrogen peroxide from a 1000 mg/L stock solution. […] The temperature of the samples was maintained at 25±2° C. with a heated water bath. The ORP response was monitored over time to observe the impact of adding low concentrations of hydrogen peroxide. The pH was measured using a high sodium electrode (Oakton model 35805-05) with three point calibration and automatic temperature correction. The ORP (oxidative-reductive potential) of solutions was measured using an Oakton model 35805-15 ORP probe calibrated to the standard hydrogen electrode (SHE) using Thermo/Orion ORP standard 967901.
(§1) Water parameters were measured by a variety of methods. The pH was measured using a high sodium electrode (Oakton model 35805-05) with three point calibration and automatic temperature correction. The ORP (oxidative-reductive potential) of solutions was measured using an Oakton model 35805-15 ORP probe calibrated to the standard hydrogen electrode (SHE) using Thermo/Orion ORP standard 967901. Sodium ion concentration was measured using a Cole-Parmer ion selective electrode, EW-27504-30, with two point calibration of a sodium standard solution of NaCl. Chloride ion concentration was measured using a Cole-Parmer ion selective electrode, SC-27504-08, with two point calibration of a chloride standard solution of NaCl. All measurements using HACH methods were measured using a HACH DR900 colorimeter. Calcium, magnesium and total hardness concentrations were measured using HACH method 8030. Sulfate concentration was measured using HACH method 10248. Aluminum concentration was measured using HACH method 8012. Iron concentration was measured using HACH method 10249 modified with a longer reaction time to minimize interferences from organic impurities. Total suspended solids (TSS) concentration was measured using HACH method 8006 modified for smaller volumes. Turbidity was measured using HACH method 8237. ATP (adenosine triphosphate) concentration was measured using the LuminUltra 2nd Generation metabolic ATP measurement technology with the LuminUltra Quench Gone-Organic Modified sampling method, a PhotonMaster Luminometer and LumiCalc software. Acid producing bacteria (ABP) and sulfate reducing bacteria (SRB) cell culture concentrations were measured with standard 1 mL serial dilutions using Intertek APB and SRB culture media, 1% salinity.

The nature of another data set: pH of treated water. The class given is physicochemical. On the procedure:
as §1

The mark [3] stands for this setting: produced water, Example 18, 0.30 mmol/L oxidant.

With `[O][Cl+][O-]` [chlorine dioxide, reference compound], the “ATP (pg/mL), at 30 min CT” value with bacteria is given as 7.7 pg/mL. Moreover, the “ATP reduction at 30 min CT” value with bacteria was determined as 94.3%. Also, the “ATP (pg/mL), at 15 min CT” value with bacteria (untreated 135) stood at 10.3 pg/mL. Moreover, the “decrease of concentration of stock solution” value in data set [1] turned out to be 6.4%. Besides, the “ORP (mV vs SHE)” value turned out to be 646 mV vs SHE in data set [2] (contact time 3 minutes), 580 mV vs SHE in data set [2] (contact time 13 minutes), 496 mV vs SHE in data set [2] (contact time 35 minutes) and 456 mV vs SHE in data set [2] (contact time 90 minutes). Also, in data set [2] (setting [3]), the “ORP (mV vs SHE), maximum” value is on record as 818 mV vs SHE. In addition, the “ORP after slow decrease” value in data set [2] (produced water, Example 18, 0.30 mmol/L, in the following 17 minutes) is given as 785 mV vs SHE. In addition, the pH amounted to 6.33 in the data set “pH of treated water” (early flowback water, Example 19, 1.7 mmol/L oxidant, contact time 3 minutes); 6.32 in “pH of treated water” (early flowback water, Example 19, 1.7 mmol/L oxidant, contact time 13 minutes); 6.32 in the data set “pH of treated water” (early flowback water, Example 19, 1.7 mmol/L oxidant, contact time 35 minutes); 6.36 in “pH of treated water” (early flowback water, Example 19, 1.7 mmol/L oxidant, contact time 90 minutes); 5.6 in “pH of treated water” (setting [3]).

Regarding `OO` [hydrogen peroxide, reference compound], the ORP entry in data set [2] is listed as “about 0.5 V (SHE)”.

For the compound `OCl` [hypochlorous acid, reference compound], the ORP result in data set [2] is “over 1.1 V (SHE)”.

For `OCl` [sodium hypochlorite, reference compound], in data set [2] (diluted, pH 10.00±0.02, 25±2 °C), the “ORP (constant)” value was “about 914 mV vs SHE”.
